Earlier results, collected in US9623004B2, “Administration of a therapeutic amount of genistein to mitigate erectile dysfunction resulting from radiation therapy for prostate cancer only throughout a defined administration period commencing shortly before and concluding after radiation therapy” (Humanetics Corporation, priority 2013, dated 2017).

Legend:
[1] = not given; remark: listed apart in the source

With O=c1c(-c2ccc(O)cc2)coc2cc(O)cc(O)c12 [Genistein, 5,7-dihydroxy-3-(4-hydroxyphenyl)-chromen-4-one] as the compound, how does the solubility in water read?
Its solubility in water is “virtually insoluble in water”.

What about the “beneficial effects in other clinical trials” value [1] of the same compound?
The value was “no beneficial effects”.
